From ChEMBL document CHEMBL4765421, “Synthesis of natural 3'-Prenylchalconaringenin and biological evaluation of ameliorating non-alcoholic fatty liver disease and metabolic syndrome” (Eur J Med Chem, 2020)
Active and inactive are the calls of the source. No cut-off for these calls is given here.

Tests used:
[1] = test system: Mus musculus; assay: Hypolipidemic activity in tyloxapol-induced Kunming mouse model of hyperlipidemia assessed as reduction in liver total cholesterol level administered orally measured after 24 hrs; assay type: functional, organism-based
[2] = test system: HepG2; assay: Cytotoxicity against human HepG2 cells assessed as reduction in cell viability at 10 to 20 uM by MTT assay; assay type: cell-based; settings: hepg2, 20 µM, dose 10-20 µM
[3] = test system: HepG2; assay: Hypolipidemic activity in oleic, palmitic, linoleic and arachidonic acid 29:47:18:6 (v/v)-induced hyperlipidemia in human HepG2 cells assessed as reduction in lipid content at 10 uM by Oil Red O staining based assay relative to control; assay type: functional; design: scale not given: the % may be the effect or the level left
[4] = test system: HepG2; assay: Hypolipidemic activity in oleic, palmitic, linoleic and arachidonic acid 29:47:18:6 (v/v)-induced hyperlipidemia in human HepG2 cells assessed as reduction in lipid content at 7.5 uM by Oil Red O staining based assay relative to control; assay type: functional; design: scale not given: the % may be the effect or the level left
[5] = test system: 3T3-L1; assay: Hypolipidemic activity in mouse 3T3-L1 preadipocytes assessed as reduction in lipid content at 15 uM by Oil Red O staining based assay relative to control; assay type: functional; design: scale not given: the % may be the effect or the level left
[6] = test system: 3T3-L1; assay: Hypolipidemic activity in mouse 3T3-L1 preadipocytes assessed as reduction in lipid content at 5 uM by Oil Red O staining based assay relative to control; assay type: functional; design: scale not given: the % may be the effect or the level left
[7] = test system: 3T3-L1; assay: Hypolipidemic activity in mouse 3T3-L1 mature adipocytes assessed as reduction in lipid content at 15 uM by Oil Red O staining based assay relative to control; assay type: functional; design: scale not given: the % may be the effect or the level left
[8] = test system: HepG2; assay: Hypolipidemic activity in oleic, palmitic, linoleic and arachidonic acid 29:47:18:6 (v/v)-induced hyperlipidemia in human HepG2 cells assessed as reduction in triglyceride content; assay type: functional, cell-based
[9] = test system: 3T3-L1; assay: Hypolipidemic activity in mouse 3T3-L1 mature adipocytes assessed as reduction in triglyceride content; assay type: functional, cell-based
[10] = test system: 3T3-L1; assay: Activation of AMPK in mouse 3T3-L1 preadipocytes assessed as increase in AMPK phosphorylation at 0.1 to 15 uM by Western blot analysis; assay type: cell-based; settings: filed as activator, dose 0.1-15 µM
[11] = test system: 3T3-L1; assay: Activation of AMPK in mouse 3T3-L1 preadipocytes assessed as increase in ACC phosphorylation at 0.1 to 15 uM by Western blot analysis; assay type: cell-based; settings: filed as activator, dose 0.1-15 µM
[12] = test system: Mus musculus; assay: Hypolipidemic activity in tyloxapol-induced Kunming mouse model of hyperlipidemia assessed as reduction in serum total cholesterol level administered orally measured after 24 hrs; assay type: functional, organism-based
[13] = test system: Mus musculus; assay: Hypolipidemic activity in tyloxapol-induced Kunming mouse model of hyperlipidemia assessed as reduction in serum triglyceride level administered orally measured after 24 hrs; assay type: functional, organism-based
[14] = test system: Mus musculus; assay: Hypolipidemic activity in tyloxapol-induced Kunming mouse model of hyperlipidemia assessed as reduction in serum ALT level administered orally measured after 24 hrs; assay type: functional, organism-based
[15] = test system: Mus musculus; assay: Hypolipidemic activity in tyloxapol-induced Kunming mouse model of hyperlipidemia assessed as increase in serum SOD level at 100 mg/kg, po measured after 24 hrs; assay type: functional, organism-based
[16] = test system: Mus musculus; assay: Hypolipidemic activity in tyloxapol-induced Kunming mouse model of hyperlipidemia assessed as reduction in lipid level in liver at 50 to 100 mg/kg, po measured after 24 hrs by Oil Red O staining based assay; assay type: functional, organism-based; settings: dose 50-100 mg/kg
[17] = test system: Mus musculus; assay: Hypolipidemic activity in tyloxapol-induced Kunming mouse model of hyperlipidemia assessed as increase in appearance of hepatic lobules at 50 to 100 mg/kg, po measured after 24 hrs by Oil Red O staining based assay; assay type: functional, organism-based; settings: dose 50-100 mg/kg
[18] = test system: Mus musculus; assay: Hypolipidemic activity in tyloxapol-induced Kunming mouse model of hyperlipidemia at 50 to 100 mg/kg, po measured after 24 hrs by Masson's trichrome staining based assay; assay type: functional, organism-based; settings: dose 50-100 mg/kg
[19] = test system: Mus musculus; assay: Hypolipidemic activity in tyloxapol-induced Kunming mouse model of hyperlipidemia assessed as reduction in liver ALT level administered orally measured after 24 hrs; assay type: functional, organism-based
[20] = test system: Mus musculus; assay: Hypolipidemic activity in tyloxapol-induced Kunming mouse model of hyperlipidemia assessed as liver index at 100 mg/kg, po measured after 24 hrs (reference value: 65.00 +/- 0.87); assay type: functional
[21] = test system: Mus musculus; assay: Hypolipidemic activity in tyloxapol-induced Kunming mouse model of hyperlipidemia assessed as epididymis white adipose tissue index at 100 mg/kg, po measured after 24 hrs (reference value: 23.43 +/- 3.10); assay type: functional
[22] = test system: Mus musculus; assay: Hypolipidemic activity in tyloxapol-induced Kunming mouse model of hyperlipidemia assessed as spleen index at 50 mg/kg, po measured after 24 hrs (reference value: 3.87 +/- 0.05); assay type: functional
[23] = test system: Mus musculus; assay: Hypolipidemic activity in tyloxapol-induced Kunming mouse model of hyperlipidemia assessed as perirenal white adipose tissue index at 50 mg/kg, po measured after 24 hrs (reference value: 18.14 +/- 1.44); assay type: functional
[24] = test system: Mus musculus; assay: In vivo induction of AMPK in tyloxapol-induced Kunming mouse model of hyperlipidemia assessed as increase in AKT phosphorylation in white adipose tissue at 50 to 100 mg/kg, po measured after 24 hrs by Western blot analysis; assay type: functional, organism-based; settings: dose 50-100 mg/kg
[25] = test system: Mus musculus; assay: In vivo induction of AMPK in tyloxapol-induced Kunming mouse model of hyperlipidemia assessed as increase in ACC phosphorylation in liver at 50 to 100 mg/kg, po measured after 24 hrs by Western blot analysis; assay type: functional, organism-based; settings: dose 50-100 mg/kg
[26] = test system: Mus musculus; assay: In vivo induction of AMPK in tyloxapol-induced Kunming mouse model of hyperlipidemia assessed as increase in CPT-1A phosphorylation in white adipose tissue at 50 to 100 mg/kg, po measured after 24 hrs by Western blot analysis; assay type: functional, organism-based; settings: dose 50-100 mg/kg
[27] = test system: Mus musculus; assay: In vivo induction of AMPK in tyloxapol-induced Kunming mouse model of hyperlipidemia assessed as increase in CPT-1A phosphorylation in liver at 50 to 100 mg/kg, po measured after 24 hrs by Western blot analysis; assay type: functional, organism-based; settings: dose 50-100 mg/kg
[28] = test system: Mus musculus; assay: In vivo induction of AMPK in tyloxapol-induced Kunming mouse model of hyperlipidemia assessed as decrease in SREBP1-C expression in liver at 50 to 100 mg/kg, po measured after 24 hrs by Western blot analysis; assay type: functional, organism-based; settings: dose 50-100 mg/kg
[29] = test system: Mus musculus; assay: In vivo induction of AMPK in tyloxapol-induced Kunming mouse model of hyperlipidemia assessed as decrease in FAS expression in white adipose tissue at 50 to 100 mg/kg, po measured after 24 hrs by Western blot analysis; assay type: functional, organism-based; settings: dose 50-100 mg/kg
[30] = test system: Mus musculus; assay: In vivo induction of AMPK in tyloxapol-induced Kunming mouse model of hyperlipidemia assessed as decrease in FAS expression in liver at 50 to 100 mg/kg, po measured after 24 hrs by Western blot analysis; assay type: functional, organism-based; settings: dose 50-100 mg/kg
[31] = test system: Mus musculus; assay: In vivo effect on PPAR signaling in tyloxapol-induced Kunming mouse model of hyperlipidemia assessed as increase in mTOR phosphorylation in liver administered orally measured after 24 hrs by Western blot analysis; assay type: functional, organism-based
[32] = test system: Mus musculus; assay: In vivo effect on PPAR signaling in tyloxapol-induced Kunming mouse model of hyperlipidemia assessed as increase in mTOR phosphorylation in white adipose tissue administered orally measured after 24 hrs by Western blot analysis; assay type: functional, organism-based
[33] = test system: Mus musculus; assay: In vivo effect on PPAR signaling in tyloxapol-induced Kunming mouse model of hyperlipidemia assessed as increase in PPARbeta expression in liver at 50 to 100 mg/kg, po measured after 24 hrs by Western blot analysis; assay type: functional, organism-based; settings: dose 50-100 mg/kg
[34] = test system: Mus musculus; assay: In vivo effect on PPAR signaling in tyloxapol-induced Kunming mouse model of hyperlipidemia assessed as decrease in PPARgamma expression in white adipose tissue at 50 to 100 mg/kg, po measured after 24 hrs by Western blot analysis; assay type: functional, organism-based; settings: dose 50-100 mg/kg

**Q.** For CC(C)=CCC/C(C)=C/Cc1c(O)cc(O)c(C(=O)/C=C/c2ccc(O)cc2)c1O, which Activity [1] is on record?
**A.** Dose-dependent effect

**Q.** What about the Activity [2] of the same molecule?
**A.** Non-Toxic

**Q.** What about the Activity [3] of the same molecule?
**A.** 54.38%

**Q.** And the Activity [4]?
**A.** 43.86%

**Q.** And the Activity [5]?
**A.** 83.91%

**Q.** And the Activity [6]?
**A.** 49.29%

**Q.** And the Activity [7]?
**A.** 72.12%

**Q.** And the Activity [8]?
**A.** Dose-dependent effect

**Q.** What about the Activity [9] of the same molecule?
**A.** Dose-dependent effect

**Q.** What about the Activity [10] of the same molecule?
**A.** Active

**Q.** What about the Activity [11] of the same molecule?
**A.** Active

**Q.** And the Activity [12]?
**A.** Dose-dependent effect

**Q.** What about the Activity [13] of the same molecule?
**A.** Dose-dependent effect

**Q.** And the Activity [14]?
**A.** Dose-dependent effect

**Q.** What about the Activity [15] of the same molecule?
**A.** Active

**Q.** What about the Activity [16] of the same molecule?
**A.** Active

**Q.** What about the Activity [17] of the same molecule?
**A.** Active

**Q.** What about the Activity [18] of the same molecule?
**A.** Active

**Q.** And the Activity [19]?
**A.** Dose-dependent effect

**Q.** What about the Activity_index [20] of the same molecule?
**A.** 52.78

**Q.** What about the Activity_index [21] of the same molecule?
**A.** 12.35

**Q.** And the Activity_index [22]?
**A.** 2.8

**Q.** What about the Activity_index [23] of the same molecule?
**A.** 9.52

**Q.** What about the Activity [24] of the same molecule?
**A.** Active

**Q.** What about the Activity [25] of the same molecule?
**A.** Active

**Q.** And the Activity [26]?
**A.** Active

**Q.** And the Activity [27]?
**A.** Active

**Q.** What about the Activity [28] of the same molecule?
**A.** Active

**Q.** What about the Activity [29] of the same molecule?
**A.** Active

**Q.** And the Activity [30]?
**A.** Active

**Q.** What about the Activity [31] of the same molecule?
**A.** Dose-dependent effect

**Q.** What about the Activity [32] of the same molecule?
**A.** Dose-dependent effect

**Q.** What about the Activity [33] of the same molecule?
**A.** Active

**Q.** And the Activity [34]?
**A.** Active
